Reference: ChEMBL document CHEMBL4364351, “PROTAC Degradation of Bromodomain for the Treatment of Hyperplasia and Cancer” (ACS Med Chem Lett, 2019)
pIC50: −log10 of the molar value.

Tests used:
Format in all cases: cell-based
[1] = biological target: Protein cereblon/Bromodomain-containing protein 4 (Homo sapiens, UniProt O60885+Q96SW2); test: Protac activity at CRBN/BRD4 in human 22Rv1 cells assessed as c-MYC degradation after 18 hrs by ELISA
[2] = biological target: Protein cereblon/Androgen receptor (Homo sapiens) (UniProt P10275+Q96SW2); test: Protac activity at CRBN/AR in human VCaP cells assessed as AR degradation at 0.0001 to 1 uM after 16 hrs by sandwich ELISA relative to control
Sequence of Protein cereblon/Androgen receptor (Homo sapiens) (P10275 whole entry, looked up): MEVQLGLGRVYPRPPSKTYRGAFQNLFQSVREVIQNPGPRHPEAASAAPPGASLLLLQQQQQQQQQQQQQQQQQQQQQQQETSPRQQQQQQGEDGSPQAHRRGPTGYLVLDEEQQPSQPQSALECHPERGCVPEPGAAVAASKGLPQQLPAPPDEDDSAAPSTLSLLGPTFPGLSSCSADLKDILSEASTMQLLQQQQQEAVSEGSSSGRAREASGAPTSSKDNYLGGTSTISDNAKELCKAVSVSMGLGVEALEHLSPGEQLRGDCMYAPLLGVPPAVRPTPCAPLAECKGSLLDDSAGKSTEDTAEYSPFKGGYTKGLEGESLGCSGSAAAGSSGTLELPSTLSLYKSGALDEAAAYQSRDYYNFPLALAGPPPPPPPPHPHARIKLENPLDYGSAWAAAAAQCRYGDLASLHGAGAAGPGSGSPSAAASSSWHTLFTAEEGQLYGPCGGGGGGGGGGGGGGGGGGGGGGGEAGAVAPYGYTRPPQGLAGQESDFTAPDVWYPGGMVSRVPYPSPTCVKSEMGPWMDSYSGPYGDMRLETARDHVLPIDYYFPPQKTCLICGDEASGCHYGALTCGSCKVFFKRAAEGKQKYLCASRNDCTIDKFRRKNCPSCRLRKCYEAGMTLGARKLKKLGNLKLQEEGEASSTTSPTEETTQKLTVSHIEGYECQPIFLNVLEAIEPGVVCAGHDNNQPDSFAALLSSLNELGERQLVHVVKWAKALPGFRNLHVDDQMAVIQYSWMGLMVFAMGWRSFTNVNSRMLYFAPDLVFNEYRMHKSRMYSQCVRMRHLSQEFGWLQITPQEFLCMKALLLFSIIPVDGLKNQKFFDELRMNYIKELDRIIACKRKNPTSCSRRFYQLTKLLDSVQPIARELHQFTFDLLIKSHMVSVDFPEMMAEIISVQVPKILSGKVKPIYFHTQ
Sequence of Protein cereblon/Androgen receptor (Homo sapiens) (Q96SW2 whole entry, looked up): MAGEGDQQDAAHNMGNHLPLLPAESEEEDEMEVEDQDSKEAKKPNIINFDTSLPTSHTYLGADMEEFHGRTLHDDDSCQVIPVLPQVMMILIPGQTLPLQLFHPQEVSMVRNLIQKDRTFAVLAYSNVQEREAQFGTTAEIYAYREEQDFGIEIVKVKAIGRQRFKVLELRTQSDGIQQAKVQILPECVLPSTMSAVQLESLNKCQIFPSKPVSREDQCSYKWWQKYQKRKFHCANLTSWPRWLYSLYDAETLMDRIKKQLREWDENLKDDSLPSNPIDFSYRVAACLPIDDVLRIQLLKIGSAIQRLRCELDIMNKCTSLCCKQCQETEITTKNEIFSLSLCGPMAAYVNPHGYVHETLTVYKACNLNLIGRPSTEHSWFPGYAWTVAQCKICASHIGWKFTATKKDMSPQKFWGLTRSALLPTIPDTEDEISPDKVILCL

[3] = biological target: Protein cereblon/Serine/threonine-protein kinase TBK1 (Homo sapiens) (UniProt Q9UHD2+Q96SW2); test: Protac activity at CRBN/TBK1 in human Panc02.13 cells assessed as TBK1 degradation at 0.1 to 1 uM after 16 hrs by Western blot analysis relative to control
Sequence of Protein cereblon/Serine/threonine-protein kinase TBK1 (Homo sapiens) (Q96SW2 whole entry, looked up): as above
Sequence of Protein cereblon/Serine/threonine-protein kinase TBK1 (Homo sapiens) (Q9UHD2 whole entry, looked up): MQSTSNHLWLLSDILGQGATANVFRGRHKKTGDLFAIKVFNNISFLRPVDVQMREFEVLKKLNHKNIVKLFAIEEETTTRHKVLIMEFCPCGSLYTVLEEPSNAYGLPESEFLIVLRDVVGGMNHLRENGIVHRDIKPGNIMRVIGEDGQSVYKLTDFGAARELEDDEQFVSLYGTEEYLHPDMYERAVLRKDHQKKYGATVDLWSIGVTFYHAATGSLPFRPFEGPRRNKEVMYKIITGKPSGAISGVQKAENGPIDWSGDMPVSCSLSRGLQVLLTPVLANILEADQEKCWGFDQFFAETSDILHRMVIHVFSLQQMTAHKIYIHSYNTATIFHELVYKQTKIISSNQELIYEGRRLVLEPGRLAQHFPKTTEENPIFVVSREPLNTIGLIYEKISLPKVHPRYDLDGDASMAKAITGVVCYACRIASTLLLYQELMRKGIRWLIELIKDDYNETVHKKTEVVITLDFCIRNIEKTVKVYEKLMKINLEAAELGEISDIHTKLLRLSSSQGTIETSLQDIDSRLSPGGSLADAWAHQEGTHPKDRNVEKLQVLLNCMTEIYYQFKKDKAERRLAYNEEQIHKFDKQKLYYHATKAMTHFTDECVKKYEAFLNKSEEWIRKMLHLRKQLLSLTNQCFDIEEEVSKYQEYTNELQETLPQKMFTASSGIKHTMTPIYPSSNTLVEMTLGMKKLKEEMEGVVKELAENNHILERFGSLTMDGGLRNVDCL

[4] = biological target: Protein cereblon/Steroid hormone receptor ERR1 (Homo sapiens) (UniProt P11474+Q96SW2); test: Protac activity at CRBN/ERRalpha in human NAMALWA cells assessed as ERRalpha degradation at 0.1 to 1 uM after 16 hrs by Western blot analysis relative to control
Sequence of Protein cereblon/Steroid hormone receptor ERR1 (Homo sapiens) (P11474 whole entry, looked up): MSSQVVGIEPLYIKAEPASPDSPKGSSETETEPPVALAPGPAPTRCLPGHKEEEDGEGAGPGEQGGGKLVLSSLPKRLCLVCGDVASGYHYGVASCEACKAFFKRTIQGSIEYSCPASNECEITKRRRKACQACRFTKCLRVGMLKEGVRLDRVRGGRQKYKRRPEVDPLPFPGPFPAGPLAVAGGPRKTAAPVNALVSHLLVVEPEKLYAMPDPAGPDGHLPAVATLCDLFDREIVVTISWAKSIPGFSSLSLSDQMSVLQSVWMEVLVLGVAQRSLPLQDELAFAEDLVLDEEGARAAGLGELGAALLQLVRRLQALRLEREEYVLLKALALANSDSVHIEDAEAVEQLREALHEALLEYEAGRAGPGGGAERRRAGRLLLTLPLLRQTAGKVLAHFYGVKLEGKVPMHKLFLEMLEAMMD
Sequence of Protein cereblon/Steroid hormone receptor ERR1 (Homo sapiens) (Q96SW2 whole entry, looked up): as the sequence (Q96SW2 whole entry, looked up) above

Sequence of Protein cereblon/Bromodomain-containing protein 4 (Q96SW2 whole entry, looked up, other chains not shown): as the sequence (Q96SW2 whole entry, looked up) above

## Cc1sc2c(c1C)C(c1ccc(Cl)cc1)=NC(CC(=O)N[C@@H](C)c1ccc(OCCOCCNc3cccc4c3C(=O)N(C3CCC(=O)NC3=O)C4=O)cc1)c1nnc(C)n1-2 (some centres not stated)
[1]
  pIC50: > 7.30

## CC1(C)[C@H](NC(=O)c2ccc(OCCCCCOCCCNc3cccc4c3C(=O)N(C3CCC(=O)NC3=O)C4=O)cc2)C(C)(C)[C@H]1Oc1ccc(C#N)c(Cl)c1 (some centres not stated)
[2]
  Activity: > 50%

## CN(CCCNc1nc(Nc2ccc(OCCOCCOCCOCCOCCOCCNc3cccc4c3C(=O)N(C3CCC(=O)NC3=O)C4=O)cc2)ncc1Br)C(=O)C1CCC1 (configuration not stated)
[3]
  Activity: > 50%

## COc1cc(/C=C2\SC(=O)N(CCCOCCNc3cccc4c3C(=O)N(C3CCC(=O)NC3=O)C4=O)C2=O)ccc1Oc1ccc(C#N)cc1C(F)(F)F (configuration not stated)
[4]
  Activity: > 50%

## Cc1sc2c(c1C)C(c1ccc(Cl)cc1)=NC(CC(=O)NCCOCCNc1cccc3c1C(=O)N(C1CCC(=O)NC1=O)C3=O)c1nnc(C)n1-2 (configuration not stated)
[1]
  pIC50: > 7.30

## CN(CCCNc1nc(Nc2ccc(OCCOCCOCCOCCOCCNc3cccc4c3C(=O)N(C3CCC(=O)NC3=O)C4=O)cc2)ncc1Br)C(=O)C1CCC1 (configuration not stated)
[3]
  Activity: > 50%

## CC1(C)C(=O)N(c2ccc(C#N)c(C(F)(F)F)c2)C(=S)N1c1ccc(-c2ccc(OCCCCCNc3cccc4c3C(=O)N(C3CCC(=O)NC3=O)C4=O)cc2)cc1 (configuration not stated)
[2]
  Activity: > 50%
